Measurements published in patent US20250161309A1, “TOPICAL COMPOSITIONS AND USES THEROF” (TOPADUR PHARMA AG, priority 2022, published 2025).

System: C57BL/6 mouse model of alopecia
Test: Topical administration and hair growth in C57BL/6 mouse model of alopecia (telogen phase, clipped dorsal skin)
Format: in vivo
Settings: for animals with visual melanogenesis in peeled skin: end of study; for day of skin colour change from pink to light grey (transition from telogen to anagen phase): after hair growth induction; for adverse effects in relation to general health or body weight: topical twice daily, 5 days/week, 4 weeks, compared to vehicle group
Source text: Dorsal hair of C57BL/6 mouse is known to have a time synchronized hair cycle. From about 18-21 days of age (2-3 weeks old) and 47-95 days of age (6-14 weeks old), the dorsal hair are in the telogen/quiescent phase (visually pink skin) [Lee B H, Lee J S, Kim Y C. Hair growth-promoting effects of lavender oil in C57BL/6 mice. Toxicol Res. (2016) 32(2):103-108; Choi H I, Kang B M, Jang J, Hwang S T, Kwon O. Novel effect of sildenafil on hair growth. Biochem Biophys Res Commun. (2018) 505(3):685-691]. C57BL/6 mouse therefore is a well-established model for studying hair growth promotion.
Male and female C57BL/6 mice of 6 to 9 weeks of age in stable telogen phase of hair growth cycle were used (obtained from Vivo Bio Tech Ltd, Telangana, India).
50 μL of a clear solution of respective 0.02%, 0.002% and 0.0002% (w/v) concentrations of Cpd 1 in the corresponding vehicle (PEG-400:EtOH/7:3) (PEG-400: Central Drug House Ltd. Dehli, India; Ethanol: Changshu Hongsheng fine chemicals Co. Ltd. China) and the positive control, 2% solution (female) or 5% (male) (w/v) Minoxidil (Chemieliva, China) in the corresponding vehicle (PEG-400:EtOH/7:3) were topically applied to the clipped area on the dorsal back of the mice. The solutions covered a circular area of approximately 2 cm^2. The treatment regimen was twice daily application for 5 days/week for total of 4 weeks.
The selected animals on day 1 weighted on average 20.05 g±0.17 ranging from 19.8 to 20.2 g. The hair on the dorsal back (approx. 4×4 cm^2) of these animals were clipped without touching the skin of the animal, using an electric clipper, on day 0 before the treatment with Cpd 1 and the hair was collected. The treatment followed by visual analysis for anagen onset, skin color change and appearance of any hair growth were monitored. After completion of the experiment, the dorsal skin of all the animals was removed and visual melanogenesis was reported. The skin sections were then preserved in 10% formalin solution for further histopathology analysis.
Animals were observed during 30 days and the hair growth score was recorded on daily basis. The criteria for scoring of hair growth is as follows: no hair growth, pink skin—score 0; skin colour changes from pink to grey/light grey without visible hair growth—score 0.5 onset of anagen (skin colour changes from grey/light grey to dark grey/black without visible hair growth)—score 1; sparse hair growth—score 1.5; diffuse short hair growth—score 2, moderate hair growth—score 2.5 and dense, normal coat hair—score 3 (Lee B H, Lee J S, Kim Y C. Hair growth-promoting effects of lavender oil in C57BL/6 mice. Toxicol Res. (2016) 32(2):103-108).
Photographs of the animals were captured before the initiation and during the course of the study.
After completion of the experiments all animals were sacrificed by euthanasia (Choi H I, Kang B M, Jang J, Hwang S T, Kwon O. Novel effect of sildenafil on hair growth. Biochem Biophys Res Commun. (2018) 505(3):685-691). The dorsal skin of each animal was then removed by peeling. The peeled skin was spread and checked visually for the induction of melanogenesis indicated by visual blackening on the reverse side of the skin. The skin samples were evenly spread on a pre-labelled glass slide and kept in 10% formalin until further use. Later, the skin samples were embedded in paraffin and sectioned at 5 microns using a microtome and the corresponding slides per animal were prepared. The slides obtained were used for Haematoxylin & Eosin (H&E) staining and in the transverse and longitudinal sections' photomicrographs data, the total number of follicles in the dermis and the sub cutis were determined for each animal. The skin thickness was measured using Image J 1.44 software.
The statistical analyses were performed using GraphPad Prism 9.0.0 software. Statistical significance was determined by One-way or Two-Way ANOVA followed by Tukey's multiple comparison test. […]

**Q.** Which “number of follicles in the subcutis layer of the skin and total follicle counts compared to control group” value (female mice) does the source give for `CCCOc1ccc(S(=O)(=O)N2CCC(CCO[N+](=O)[O-])(CCO[N+](=O)[O-])CC2)cc1-c1nc2c(CCC)cn(CC)c2c(=O)[nH]1` [Cpd 1, (1-((3-(5-ethyl-4-oxo-7-propyl-4,5-dihydro-3H-pyrrolo[3,2-d]pyrimidin-2-yl)-4-propoxyphenyl)sulfonyl)piperidine-4,4-diyl)bis(ethane-2,1-diyl) dinitrate] here?
**A.** considerable higher number

**Q.** What about the “animals with visual melanogenesis in peeled skin” value (shortened to “animals with visual melanogenesis”) (female mice, 0.0002% (w/v)) of the same compound?
**A.** 2/5

**Q.** What about the “anagen hair follicles (histology, H&E) compared to vehicle and 2% Minoxidil” value (female mice, 0.0002% and 0.002% groups) of the same compound?
**A.** more

**Q.** What about the “day of skin colour change from pink to light grey (transition from telogen to anagen phase)” value (female mice, 0.002% (w/v)) of the same compound?
**A.** 10 day

**Q.** What about the “hair growth score among treatment groups” value (female mice, 0.002% (w/v), at day 30, followed by low dose groups and Minoxidil group) of the same compound?
**A.** maximal

**Q.** What about the “animals with visual melanogenesis” value (female mice, 0.002% (w/v)) of the same compound?
**A.** 2/5

**Q.** What about the “hair growth (score) compared to vehicle group” value (female mice, 0.002% (w/v), from day 26 on) of the same compound?
**A.** significantly higher

**Q.** What about the “skin thickness compared to vehicle and 2% Minoxidil groups” value (female mice, Cpd 1 treatment) of the same compound?
**A.** increased

**Q.** And the “area of black skin compared to control groups” value (female mice, at day 24)?
**A.** larger

**Q.** And the “adverse effects in relation to general health or body weight” value (female mice)?
**A.** No adverse effects

**Q.** And the “number of follicles in the subcutis layer of the skin and total follicle counts compared to control group” value (male mice)?
**A.** considerable higher number

**Q.** And the “skin thickness compared to vehicle group” value (male mice, 0.002% (w/v))?
**A.** increased

**Q.** And the “hair growth (score) compared to vehicle” value (male mice, 0.002% (w/v) in PEG-400:EtOH/7:3, from day 5 on)?
**A.** significantly higher

**Q.** And the “day of skin colour change from pink to light grey (transition from telogen to anagen phase)” value (male mice, 0.002% (w/v))?
**A.** 10 day

**Q.** And the “hair growth compared to vehicle group” value (male mice, 0.002% (w/v), at day 22)?
**A.** significantly higher

**Q.** And the “animals with visual melanogenesis” value (male mice, 0.002% (w/v))?
**A.** 2/5

**Q.** And the “hair growth (score) compared to 5% Minoxidil” value (male mice, 0.002% (w/v), from day 15)?
**A.** significant increase

**Q.** What about the “anagen hair follicles (histology, H&E)” value (male mice, Cpd 1-treated groups) of the same compound?
**A.** more

**Q.** What about the “adverse effects in relation to general health or body weight” value (male mice) of the same compound?
**A.** No adverse effects
